# Source: US12616713B2, “Methods for enhancing vascular density” (priority 2016, dated 2026)
# Key:
# NAD^+ = test: NAD+ measurements in tissues of NMN-treated mice; assay type: in vivo, mouse; settings: 18-month old mice, NMN 400 mg/kg/day in drinking water, two months; liver and gastrocnemius
# Source text: SIRT1-iKO, SIRT1-Tg and SIRT1^STOP mice were described previously (Firestein et al., 2008, PLoS One 3, e2020; Price et al., 2012, Cell Metab 15, 675-690). Tie2Cre and Sirt1^flox/flox mice were purchased from Jackson Laboratory (Bar Harbor, ME). MCK-PGC-1α and MyogCre mice were gifts from Dr. Bruce Spiegelman (Dana Farber Cancer Center, MA) and Dr. Eric N. Olson (UT Southwestern, Dallas, TX), respectively. mT-STOP^flox/flox, Gfp mouse was generated in house by E.O.W., which consists of an allele driven by ubiquitous actin B promoter, which has loxP sites flanking membrane-targeted tandem dimer Tomato (mT) and transcriptional STOP cassette, followed by a GFP coding sequence. […] SIRT1-iKO mice were fed tamoxifen (360 mg/kg) diet for five weeks to elicit whole-body SIRT1 exon 4 excision as described previously (Price et al., 2012). […] Levels of NAD^+ and NADH levels were measured in EC and muscle homogenates using commercially available kit (NAD-NADH Glo, Promega) according to manufacturer's instructions. Alternatively, NAD^+ levels in muscle and liver were measured by assay in-house developed method (Uddin et al., 2016, Front Pharmacol 7, 258). […] The other aliquot was acidified with HCl, and then neutralized with NaOH on ice to quantify NAD^+. […] Total NADH and NAD^+ were quantified using a Bio-Rad Imark microplate reader.
# C57BL/6J mice [1] = test: Metabolic chambers (CLAMS) oxygen consumption; assay type: in vivo, mouse
# Protocol: Metabolic chambers (CLAMS™, Columbus Instruments, Columbus, OH) were used to perform whole-body measurements of metabolic function. Following acclimatization to the metabolic chambers, individually housed mice were monitored continuously over 48 h to determine oxygen consumption, carbon dioxide production, respiratory exchange ratio, energy expenditure, food intake, water intake and activity. Body composition (fat mass, lean mass, and total body water) was measured by EchoMRI (Echo MRI™ 900).
# HUVECs = test: Wound scratch assay, HUVECs; assay type: cell-based, human; settings: Scr or SIRT1 siRNA HUVECs, H2O2 150 μM 1 h, NaHS 100 μM and/or NMN 500 μM, 6 h
# Protocol: ECs were cultured until forming a confluent monolayer and a scratch was made using a 200 μL pipette tip. Then the cells were allowed to migrate+/−NaHS (0.1 mM) and +/−NMN (0.5 mM) in EGM-2 medium for 6 hrs. Images were taken at the same location using a brightfield inverted microscope (Olympus 2467) every 2 h. The area of gap closure was calculated using ImageJ software. In some experiments, HUVECs were transduced with Scr or SIRT1 siRNA and cultured until forming a confluent monolayer. The cells were exposed to H2O2 (150 μM) for 1 h and a scratch was made using a 200 μL pipette tip. Then the cells were allowed to migrate with PBS (vehicle), NaHS (100 μM) and/or NMN (500 μM) in EGM-2 medium for 6 h. Images were taken at the same location using a brightfield inverted microscope (Olympus 2467) every 2 h. The area of gap closure was calculated using ImageJ software.
# [2] = tested on: aortic rings from 18-month old mice; test: Aortic ring assay (ex vivo angiogenesis); assay type: cell-based, mouse; settings: 18-month old WT mice, VEGF 30 ng/mL, NMN 0.5 mM, 7 days, versus PBS
# Protocol: Aortic ring assay was performed according to the published protocol (Baker et al., 2012, Nat Protoc 7, 89-104). Briefly, thoracic aortas from mice were excised and transferred to Opti-MEM media. All extraneous fat, tissue and branching vessels were removed with forceps and a scalpel under a dissection microscope. The aortas were cut into ˜0.5 mm wide rings and serum starved overnight by incubating in Opti-MEM at 37° C./5% CO2. Next day, each aortic ring was embedded in 50 μL collagen matrix in a 96-well plate and incubated at 37° C./5% CO2 for 1 h. After embedding, the vessel sprouting was stimulated by supplementing the rings with 150 μL of Opti-MEM culture containing FBS (2.5%), with or without VEGF (30 ng/mL), or FGF (30 ng/mL) and incubating at 37° C./5% CO2 for 7 days. NMN (500 μM) was added to the media wherever mentioned and replaced every 3 days. The resulting sprouts were stained with BS1 lectin-FITC (Sigma) and imaged using fluorescence microscope. The number and total area of sprouts originating from aortic rings were quantified by ImageJ software.
# C57BL/6J mice [3] = test: Muscle capillaries in mice with lentiviral EC-specific SIRT1 knockdown; assay type: in vivo, mouse; settings: 20-month old mice, SIRT1 miRNA #5 lentivirus, NMN 400, NaHS 20, GYY4137 20 mg/kg/day, four weeks
# Protocol: Lentiviral particles were concentrated by ultracentrifugation (cite) and viral titer was determined by (cite kit) and injected at 1×10^10 TU/mouse carrying SIRT1 or NT miRNAs to 20-mo old WT C57BL/6J mice (NIA) via retro-orbital injection. Mice received two consecutive injections behind alternate eyes two days apart. 10 days post final injection, mice were assigned to different treatment groups.
# Freshly isolated whole quadriceps and gastrocnemius muscle samples were mounted in OCT compound (Tissue-Tek), placed in an isopentane bath and slowly cooled in liquid nitrogen. Transverse sections at 20 μm-thickness were sectioned on a cryostat (Leica). The sections were fixed in pre-cooled acetone (−20° C.) for 10 min and washed with PBS. Slides were then blocked in normal goat serum and 5% Blocking Reagent (PerkinElmer) in PBST (PBS with 0.1% Triton-X) for 1 h at room temperature, and then incubated with anti-CD31 (ab56299, Abcam) and anti-Laminin (L9393, Sigma), GFP (ab6556, Abcam) or SIRT1 (HPA006295, Sigma) antibodies diluted in blocking buffer overnight at 4° C. […] Images were acquired using a confocal fluorescence microscope (Nikon A1). Quantification of capillaries and capillary density were performed using ImageJ software. […]
smiles,measurement,setting,value
"NC(=O)c1ccc[n+]([C@@H]2O[C@H](COP(=O)([O-])O)[C@@H](O)[C@H]2O)c1 [NMN, nicotinamide mononucleotide]",NAD^+ levels in tissues,NAD^+,raised NAD^+ levels
same,oxygen consumption higher than non-treated control mice,C57BL/6J mice [1]; dark cycle,23%
same,oxygen consumption higher than non-treated control mice,C57BL/6J mice [1]; light cycle,30%
same,cell migration (percentage of closed gaps),HUVECs,had no effect
same,number of VEGF-mediated outgrowths or sprouts per aortic ring,[2],doubled
same,ability to increase vascularization in SIRT1 knockdown mice,C57BL/6J mice [3],blocked in the SIRT1 knockdown mice
